According to BindingDB's records for doi:10.1016/j.bmcl.2017.11.040 (Hawaii Biotech, 2018):

Biological target: T1, Calmodulin-sensitive adenylate cyclase (Bacillus anthracis, UniProt P40136)
T1 sequence (P40136 whole entry): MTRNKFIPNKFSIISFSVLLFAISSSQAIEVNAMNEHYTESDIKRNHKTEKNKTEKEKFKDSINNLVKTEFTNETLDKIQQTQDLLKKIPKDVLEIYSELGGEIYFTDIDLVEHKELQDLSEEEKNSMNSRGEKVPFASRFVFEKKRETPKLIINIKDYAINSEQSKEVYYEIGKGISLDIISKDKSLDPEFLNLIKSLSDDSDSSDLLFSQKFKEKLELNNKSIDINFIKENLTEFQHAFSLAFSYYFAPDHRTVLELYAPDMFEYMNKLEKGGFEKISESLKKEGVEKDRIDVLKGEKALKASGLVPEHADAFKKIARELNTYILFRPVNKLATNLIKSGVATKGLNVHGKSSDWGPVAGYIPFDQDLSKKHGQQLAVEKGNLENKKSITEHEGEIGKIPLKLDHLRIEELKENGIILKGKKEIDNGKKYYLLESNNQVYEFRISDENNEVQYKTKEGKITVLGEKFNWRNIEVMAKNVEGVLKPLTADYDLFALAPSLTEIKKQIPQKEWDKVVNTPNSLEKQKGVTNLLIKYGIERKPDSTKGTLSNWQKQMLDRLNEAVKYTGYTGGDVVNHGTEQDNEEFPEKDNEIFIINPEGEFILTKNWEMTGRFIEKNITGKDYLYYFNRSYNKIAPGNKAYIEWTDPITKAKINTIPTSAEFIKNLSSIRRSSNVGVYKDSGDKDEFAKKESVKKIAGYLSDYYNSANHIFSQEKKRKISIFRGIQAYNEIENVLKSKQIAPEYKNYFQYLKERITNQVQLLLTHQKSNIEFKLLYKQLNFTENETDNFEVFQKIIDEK
Test: Inactivation of Bacillus anthracis edema factor in presence of CaM incubated for 10 to 240 mins by EnzChek pyrophosphate assay

Nc1cc(OC2CCN(C(=O)c3ccc(S(=O)(=O)F)cc3)CC2)ccn1
Ki: 59.1 µM
